Assays:
[1] = system: human skin model (EpiDerm EPI-200; MatTek); test: Skin cell activation effect, MTT survival rate in three-dimensional human skin model; type: cell-based; conditions: 100 μL, 72 hours, water control = 100%
Method: Using a three-dimensional human skin model, the skin cell activation effect of resveratrol 3-O-α-glucoside was investigated.
Resveratrol 3-O-α-glucoside was prepared into an aqueous solution having a concentration of 0.02, 0.05, 0.07, or 0.1 wt %, and the resulting solution was used as a sample solution. One-hundred microliters of the sample solution were administered to the horny layer side of the human skin model (EpiDerm EPI-200; MatTek), and cultured in 5 mL of a special medium (EPI-100-ASY) at 37° C. for 72 hours. After the culture, the survival rate of cells in the skin model was measured using the MTT (Thiazolyl Blue Tetrazolium Bromide) method based on the manual, and a relative ratio of the survival rate (cell growth improvement rate; %) after the administration of each of the sample solutions was calculated, taking as 100% the survival rate of a control group to which water not containing resveratrol 3-O-α-glucoside was administered.

[2] = system: hyaluronidase (from bovine testes); test: Hyaluronidase inhibitory effect; type: biochemical; conditions: pH 4.0, 37° C., 40 minutes
Method: The following sample solution, enzyme solution, and hyaluronic acid solution were prepared.
Resveratrol 3-O-α-glucoside was dissolved in a 0.2 M acetate buffer solution (pH 4.0) to a concentration of 0.025 or 0.1 wt %, and the resulting solution was used as a sample solution.
In 1.5 mL of a 0.2 M acetate buffer solution (pH 4.0), 7400 units of hyaluronidase (from bovine testes; Sigma-Aldrich Co. LLC.) were dissolved, and the resulting solution was used as the enzyme solution.
In 12.5 mL of a 0.2 M acetate buffer solution (pH 4.0), 10 mg of sodium hyaluronate (from crista galli; Wako Pure Chemical Industries, Ltd.) was dissolved, and the resulting solution was used as the hyaluronic acid solution.
Using each of the solutions prepared as above, the hyaluronidase inhibitory effect was evaluated in accordance with the following procedures. One-hundred microliters of the sample solution, 50 μL of the enzyme solution, and 200 μL of the hyaluronic acid solution were mixed and reacted at 37° C. for 40 minutes. Then, 100 μL each of a 0.4 M aqueous solution of sodium hydroxide and a 1 M aqueous solution of potassium borate were added to the mixture, and the reaction was stopped. […] The absorbance at 585 nm was subsequently measured. From the measured value of absorbance, the hyaluronidase inhibition ratio was determined in accordance with the equation shown below. […]

[3] = DPPH radical scavenging effect; type: biochemical
Method: Resveratrol 3-O-α-glucoside was dissolved in water to a concentration of 100, 250, 500, or 1000 μmol/L, and the resulting solution was used as a sample solution.
In 10 mL of ethanol, 2 mg of 2,2-diphenyl-1-picrylhydrazyl (Wako Pure Chemical Industries, Ltd.) was dissolved, and the resulting solution was used as the DPPH solution.
Using each of the solutions prepared as above, the DPPH radical scavenging effect was evaluated in accordance with the following procedures. One-hundred microliters of the sample solution, 500 μL, of the DPPH solution, 250 μL of a […] MES (2-morpholinoethanesulfonic acid) buffer, and 150 μL of distilled water were mixed and reacted at 30° C. for 30 minutes. The absorbance at 517 nm was subsequently measured. Further, distilled water (control solution) was used instead of the sample solution, and the absorbance at 517 nm was measured under the same conditions as described above. From the measured value of absorbance, the DPPH radical scavenging ratio was determined in accordance with the equation shown below. DPPH radical scavenging ratio (%)=(A−B)/A×100 [Equation 2]

[4] = system: IL-1β gene; test: Reduction of inflammation through pretreatment: IL-1β gene expression, Poly I:C; type: cell-based; conditions: normal human epidermal keratinocytes, pretreatment 0.001 wt % 24 hours, then Poly I:C 1 μg/mL 9 hours; control = 100%, comparative group 871
Method: Normal human epidermal keratinocytes were seeded into 12-well culture plates at 5×10^4 cells per well. As the medium, EpiLife KG-2 medium (basal medium) supplemented with insulin, hEGF, hydrocortisone, anti-microbial agents, and BPE was used, and the cells were preincubated in 5% CO2 at 37° C. for 48 hours. Further, the cells were incubated for additional 24 hours in a medium obtained by removing hydrocortisone only from the basal medium (assay medium). Next, the medium was replaced with a sample medium obtained by supplementing the assay medium with resveratrol 3-O-α-glucoside to a concentration of 0.001 wt %, the cells were cultured in 5% CO2 at 37° C. for 24 hours, and the cultured cells were pretreated with resveratrol 3-O-α-glucoside. […] After the medium was removed and the cells were washed with PBS, total RNA was extracted from the cells, and the level of expression of the proinflammatory cytokine IL-1β gene was quantified by real time PCR. […]
Taking as 100% the level of expression of the IL-1β gene for the control group, a relative ratio of the expression level of the IL-1β gene for each of the comparative group and the resveratrol 3-O-α-glucoside-supplemented group (IL-1β gene expression ratio, %) was calculated. […]

Structure (SMILES): OC[C@H]1O[C@H](Oc2cc(O)cc(C=Cc3ccc(O)cc3)c2)[C@H](O)[C@@H](O)[C@@H]1O [Resveratrol 3-O-α-Glucoside, resveratrol 3-O-α-glucoside]
- Cell Growth Improvement Rate (%) ([1]; 0.02 wt % aqueous solution): 106%
- Cell Growth Improvement Rate (%) ([1]; 0.05 wt % aqueous solution): 115%
- Cell Growth Improvement Rate (%) ([1]; 0.07 wt % aqueous solution): 116%
- Cell Growth Improvement Rate (%) ([1]; 0.1 wt % aqueous solution): 117%
- Hyaluronidase Inhibition Ratio (%) ([2]; 0.025 wt % in the sample solution): 7.6%
- Hyaluronidase Inhibition Ratio (%) ([2]; 0.1 wt % in the sample solution): 20.6%
- DPPH Radical Scavenging Ratio (%) ([3]; 100 μmol/L in the sample solution): 13%
- DPPH Radical Scavenging Ratio (%) ([3]; 250 μmol/L in the sample solution): 30%
- DPPH Radical Scavenging Ratio (%) ([3]; 500 μmol/L in the sample solution): 50%
- DPPH Radical Scavenging Ratio (%) ([3]; 1000 μmol/L in the sample solution): 75%
- IL-1β Gene Expression Ratio (%) [4]: 697%

— patent US10149809B2, “Skin aging inhibitor and concentrate of resveratrol 3-O-α-glucoside” (priority 2014, dated 2018)
